Like-named read-outs stand apart in the source and are kept apart here.
Assays:
VEC-100 tissue [1] = assay: VEC-100 tissue, repeated exposure (1 hr daily for 5 days; viability, TEER); format: cell-based
N. gonorrhoeae = assay: Minimal cidal concentration (MCC); format: cell-based
C. trachomatis = assay: Bactericidal activity against C. trachomatis (inclusion count in HeLa cells); format: cell-based; conditions: absence or presence of 2% VF and 20% SF, 2 hours at room temperature; LA 80 mM
Description: C. trachomatis was incubated with actives ±2% VF and 20% SF for 2 hours at room temperature. The mixtures were serially diluted 1/10 in SPG solution, applied on HeLa cells in triplicate. Images were acquired using the Cytation-5 instrument and the inclusion count was analyzed using the Gen5 software in the Cytation-5. Control conditions included HeLa cells challenged with C. trachomatis in the absence of the actives. (FIG. 15).

human sperm [2] = assay: Sperm-Cervical Mucus Penetration Test (SMPT) in methylcellulose; format: cell-based
Ectocervical explants = tested on: Ectocervical explants
Description: Kruskal-Wallis test with Dunn's multiple comparison) (FIG. 22).
In FIG. 23, ectocervical explants were incubated with the selected concentrations of the APIs for 24 hr in the presence or absence of 5% VF. Explants were fixed, paraffin embedded, sectioned and stained with H&E.
Ectocervical explants were exposed to the APIs 24 hr in the presence or absence of 5% VF. Supernatants were collected and analyzed for pro-inflammatory cytokines.

[3] = 10 days exposure
human sperm [4] = assay: Sperm motility assay; format: cell-based; conditions: for Average Motility Reduction: average of nine 3-API checkerboard combinations containing the named API at this dose; for Average CI: average of nine 3-API combinations
Description: Fresh human sperm samples were obtained the day of the experiment. 100 mM stock solutions of each API in saline were prepared in advance. Immediately prior to the experiment, solutions of each API concentration to be tested were prepared via dilution with saline. These include solutions of multiple APIs added together.
The effect of each API on sperm motility and viability was determined using human donors, adding 200 μL of API's diluted in sterile saline to 50 μL of fresh semen. For motility assessments, the incubation mixture was incubated for 5 minutes and then 100 sperm were counted under the microscope by two andrology-trained researchers and classified as either non-motile or motile. If motile, the sperm were further classified according to the nature of their motility—from barely twitching with no forward progression to progressively motile. Each experiment was repeated at least three times on different days using different donors to account for natural variations in sperm properties.
The % motility for each experimental condition was calculated by normalizing the fraction of motile sperm in the experimental groups to the fraction of motile sperm in the saline control treated group, setting 100% to the average fraction of motile sperm from control experiments. For example, the % motility at concentration c would be:
Once % motility data was obtained, the synergy was measured with Compusyn software. See Chou et al., CompuSyn for drug combinations: PC software and user's guide: a computer program for quantitation of synergism and antagonism in drug combinations, and the determination of IC50. ED50 and LD50 values, which is incorporated herein by reference in its entirety. Motility data for individual API concentration as well as all double and triple API solutions was entered into the program and analyzed according to the Chou-Talalay Median Effect Principle.
Next, the synergy between each of the APIs was tested to determine if there were any synergistic effects between compounds which would allow for reduced dosages. Each of the three possible two-compound combinations were tested, followed by the combination of all three APIs. […] Synergy was calculated with Compusyn using the Chou-Talalay Median Effect approach and represented as a CI (Combination Index) value. […] The smaller the CI value for a combination, the greater the degree of synergy.
After the two-API combinations were complete, the full three-way synergy was tested using a 3×3×3 checkerboard style assay to test all 27 permutations of three chosen concentrations for each of the three APIs.
From the resulting data, the estimated effects of each of the individual API were isolated by averaging % reduction in motility and the CI values for each of the API concentrations tested. With this 3×3×3 checkerboard assay, each single concentration was tested against nine permutations of the other two APIs, meaning that each cell in Table 4 represents the average of the nine combinations involving the specified API concentration.
Synergy was calculated utilizing the Chou-Talalay median effect principle and Compusyn software which quantifies synergy as a combination index (CI) for each combination. A CI<1 signifies synergy, a CI>1 signifies antagonism and a CI=1 signifies a purely additive effect.

HSV-2 G = assay: HSV-2 plaque reduction assay; format: cell-based; conditions: single API, 30 min pre-incubation with HSV-2 G in saline, read-out: EC50 (95% confidence interval)
Description: The HSV-2 plaque reduction assay was performed to test the anti-HSV-2 activity of ZA, CS and LA. […] Virus controls containing HSV-2 in saline were incubated under the same conditions. After incubation all dilutions and controls were diluted 1/10 in DMEM and tittered using the plaque assay. FIG. 12 and Table 10 show the results. […] The data represented the average of two independent experiments. In Table 10, the molar ratio of CS:LA:ZA in ZS-CA-LA is 1:20:100.

HIV-1BaL = assay: MAGI assay, anti-HIV-1BaL activity in TZMbl cells; format: cell-based; conditions: single API; 30 min pre-incubation with virus in saline, 10-fold dilution, 72 h on TZMbl cells; read-out: EC50 (95% confidence interval)
Description: MAGI assay was performed to test anti-HIV-1BaL activity. […] Virus controls containing HIV-1BaL in saline were incubated under the same conditions. Following incubation, API-HIV-1BaL mixture was diluted 10-fold and added to TZMbl cells. Following 72-hour incubation, the cells were washed and stained with X-gal and fixed. […] Infected cells were counted using CTL instrument.

VEC-100 tissue [5] = conditions: 100 mM
Description: VEC-100 tissues were incubated with APIs for 24 hr. Tissue viability was analyzed by MTT and LDH assay and TEER measurements were recorded.

G. vaginalis = assay: Minimal cidal concentration (MCC); format: cell-based; conditions: 30 minutes exposure; >3 log decrease in CFU considered cidal
[6] = Dose 1 (CS 2.95, ZA 4.75, LA 10.26 mM)
[7] = Dose 2 (CS 3.94, ZA 6.34, LA 13.70 mM)
[8] = Dose 3 (CS 5.90, ZA 9.51, LA 20.54 mM)

CC(O)C(=O)[O-].CC(O)C(=O)[O-].[Zn+2] (centres unmarked) [ZL, zinc lactate]
VEC-100 single exposure (MTT, TEER and LDH) day 1-5 24 h No VF (VEC-100 tissue [1]; 10 mM): No Tox | VEC-100 single exposure (MTT, TEER and LDH) day 1-5 24 h No VF (VEC-100 tissue [1]; 21 mM): No Tox | Non-toxic concentrations in VEC-100 model TEER and LDH 5 daily exposures (VEC-100 tissue [1]; multiple treatments): 21 mM | MCC 10% AB Serum (N. gonorrhoeae): >100 mM | MCC 30% AB Serum (N. gonorrhoeae): >100 mM | MCC No Serum (N. gonorrhoeae): >100 mM | inhibitory activity (in words) (N. gonorrhoeae; ± human serum): not inhibitory | inhibition of C. trachomatis infection (in words) (C. trachomatis): exception | EC90 (human sperm [2]; Table 16, concentration of the named API in the CS + ZL + LA combination (cf. Table 7), read-out: Anti-Sperm concentrations Sperm-mucus penetration (EC90)): 5 mM | EC90 (human sperm [2]; Table 18, concentration of the named API in the CS + ZL + LA combination, read-out: Anti-Sperm concentrations Sperm-mucus penetration (EC90)): 5 mM | EC90 (human sperm [2]; single API, 1% methylcellulose, 30 minutes, read-out: Inhibition of Sperm Mucus Penetration EC90 [95% CI] (Migration of vanguard sperm in methyl cellulose spiked with API)): 13 mM | Ectocervix: single exposure (MTT, Histology, CC) 24 h, 5% VF (Ectocervical explants; 25 mM): No Tox | Ectocervix: single exposure (MTT, Histology, CC) 24 h, No VF (Ectocervical explants; 25 mM): No Tox | Ectocervix: single exposure (MTT, Histology, CC) 24 h, 5% VF (Ectocervical explants; 50 mM): No Tox | Ectocervix: single exposure (MTT, Histology, CC) 24 h, No VF (Ectocervical explants; 50 mM): No Tox | Ectocervix: single exposure (MTT, Histology, CC) 24 h, 5% VF (Ectocervical explants; 100 mM): No Tox | Ectocervix: single exposure (MTT, Histology, CC) 24 h, No VF (Ectocervical explants; 100 mM): No Tox | Non-toxic concentrations in ectocervix MTT and histology 24 hr (Ectocervical explants; single treatment): 100 mM | Non-toxic concentrations based on rat vaginal irritation study 10 days exposure [3]: 50 mM | EC90 (human sperm [4]; Table 16, concentration of the named API in the CS + ZL + LA combination (cf. Table 7), read-out: Anti-Sperm concentrations Total motility (EC90)): 22 mM | EC90 (human sperm [4]; Table 18, concentration of the named API in the CS + ZL + LA combination, read-out: Anti-Sperm concentrations Total motility (EC90)): 22 mM | MIC (concentration to inhibit progressive sperm motility) (human sperm [4]; single API): 30 mM | EC50 (human sperm [4]; single API (CS/ZL/LA study)): 45 mM | EC90 (human sperm [4]; single API (CS/ZL/LA study), read-out: EC90): 94 mM | EC90 (human sperm [4]; single API, read-out: Reduction of Sperm Motility EC90 [95% CI] (concentration to inhibit total sperm motility)): 94 mM

O=S(=O)([O-])[O-].[Cu+2] [CS, copper sulfate]
inhibition of C. trachomatis infection (in words) (C. trachomatis): significantly inhibited infection | EC50 (HSV-2 G): 0.009 mM | EC50 (HIV-1BaL): 0.183 mM

Triton [reference compound]
VEC-100 single exposure (MTT, TEER and LDH) day 1-5 24 h No VF (VEC-100 tissue [1]; control, concentration not given): Tox

CC(=O)[O-].CC(=O)[O-].[Zn+2] [ZA, zinc acetate]
MCC 10% AB Serum (N. gonorrhoeae): 100 mM | MCC 30% AB Serum (N. gonorrhoeae): >100 mM | MCC (N. gonorrhoeae; 30 minutes exposure, >3 log decrease in CFU considered cidal): 100 mM | MCC No Serum (N. gonorrhoeae): 100 mM | VEC-100: Single exposure (MTT, TEER and LDH) 24 h, No VF (VEC-100 tissue [5]): No Tox | Ectocervix: single exposure (MTT, Histology, CC) 24 h, 5% VF (Ectocervical explants; 100 mM): No Tox | Ectocervix: single exposure (MTT, Histology, CC) 24 h, No VF (Ectocervical explants; 100 mM): No Tox | EC50 (HSV-2 G): 0.78 mM | Average Motility Reduction (human sperm [4]; [6]): 63.47% | Average CI (human sperm [4]; [6]): 0.48 | Average Motility Reduction (human sperm [4]; [7]): 73.77% | Average CI (human sperm [4]; [7]): 0.47 | Average Motility Reduction (human sperm [4]; [8]): 80.09% | Average CI (human sperm [4]; [8]): 0.45 | EC50 (human sperm [4]; single API (CS/ZA/LA study), saline, 5 min with fresh semen, % motility vs saline control): 19 mM | EC90 (human sperm [4]; single API (CS/ZA/LA study), saline, 5 min with fresh semen, % motility vs saline control, read-out: EC90): 33.2 mM | EC50 (HIV-1BaL): 1.96 mM | MCC (G. vaginalis): > 100 mM

Source: patent US20260224475A1, “MULTI-COMPONENT INTRAVAGINAL RING” (priority 2023, published 2026)
